Patent publication US20240398942A1, “USE OF ANTI-CD40 ANTIBODY” (CHIA TAI TIANQING PHARMACEUTICAL GROUP CO., LTD., priority 2021, published 2024)
Where a name gives a salt, the structure may show the parent alone.

Tests used:
[1] = tested on: human B-cell lymphoma Ramos cells; experiment: Efficacy of anti-CD40 antibody and anlotinib, Ramos subcutaneous xenograft mouse model; type: in vivo
Description: Human B-cell lymphoma Ramos cells (purchased from the Cell Bank of the Chinese Academy of Sciences) were cultured in an RPMI1640 medium containing 10% of fetal bovine serum and penicillin-streptomycin. The cells were inoculated in a 37° C./5% CO2 incubator until the logarithmic growth phase and collected for grafting.
The mice used in this study were NOD-Scid mice (purchased from Shanghai Lingchang Biotechnology Co., Ltd.) aged about 6 weeks and bred in specific pathogen-free conditions in 12/12-hour light/dark cycles. The health status of the animals was monitored daily.
Each mouse was inoculated subcutaneously with 1×10^7 Ramos cells. When the tumor grew to 80-100 mm^3, the mice were divided into groups of 10 according to the tumor volume. The administration regimen is shown in Table 10, with the first dosing day designated as DO. Antibody huC1H1-V2 and IgG2 (Biointron, Cat. No. B107803) were both formulated to desired concentrations with normal saline, and anlotinib dihydrochloride was formulated at desired concentrations with distilled water. At the end of study (D14), the animals were sacrificed by CO2 anesthesia and dissected to give the tumors. The tumors were photographed.
The tumor diameters were measured twice weekly with a vernier caliper. Tumor volume (V)=½×a×b^2, wherein a and b denote length and width, respectively; T/C (%)=(T−T0)/(C−C0)×100, wherein T and C refer to the tumor volumes of the treatment group and the IgG2 control group on day 14, respectively, and TO and C0 refer to the tumor volumes of the treatment group and IgG2 control group on day 0, respectively; the tumor growth inhibition % (TGI %)=100−T/C (%). When the tumor regressed, the tumor growth inhibition % (TGI %)=100−(T−T0)/T0×100. If the tumor volume was smaller than the initial volume, i.e., T<T0 or C<C0, the outcome was defined as partial regression (PR); if the tumors completely disappeared, i.e., the outcome was defined as complete regression (CR).

[2] = molecular target: Cynomolgus monkey CD40-his; experiment: Biacore surface plasmon resonance affinity and binding kinetics; conditions: for Kd: dissociation rate
Description: (§1) The affinity and binding kinetics of the anti-CD40 antibody in the present application were characterized by a Biacore T200 system (GE Healthcare, Pittsburgh, PA, USA).
(§2) Briefly, a goat anti-human IgG (GE Healthcare, Cat. No. BR100839, human antibody capture kit) was covalently linked to a CM5 chip (GE Healthcare, Cat. No. BR100530, carboxymethylated dextran-coated chip) via the primary amine group using a standard amine coupling kit supplied by Biacore (GE Healthcare, Pittsburgh, PA, USA). Unreacted portions on the biosensor surface were blocked with ethanolamine. Then, the anti-CD40 antibody of the present application and two benchmark antibodies (BM1 (dacetuzumab, Genentech Inc., also referred to CD40-BM1, prepared in-house; the heavy and light chain amino acid sequences are set forth in SEQ ID NOs: 40 and 41, respectively) and BM2 (selicrelumab, Abgenix Inc., also referred to CD40-BM2, prepared in-house; the heavy and light chain amino acid sequences are set forth in SEQ ID NOS: 42 and 43, respectively)) at a concentration of 66.67 nM were directed through the chip at a flow rate of 10 μL/min. Then, serially diluted recombinant human CD40-his (Acro biosystems, Cat. No. CD0-H5228, serially 2-fold diluted from 80 nM in HBS-EP^+ buffer (supplied by Biacore)) or cynomolgus monkey CD40-his protein (Acro biosystems, Cat. No. CD0-C52H6, serially 2-fold diluted from 80 nM in HBS-EP^+ buffer (supplied by Biacore)) was directed through the chip at a flow rate of 30 μL/min. The antigen-antibody binding kinetics was tracked for 2 min and the dissociation kinetics was tracked for 10 min. The association and dissociation curves were fitted to a 1:1 Langmuir binding model using BIAcore evaluation software. KD, Ka, and Kd values were determined.

[3] = molecular target: T1, Human CD40-his (Homo sapiens, UniProt P25942); experiment: as above; conditions: for Kd: dissociation rate
T1 construct: His; purchased Acro biosystems CD0-H5228
T1 sequence (P25942 21-277): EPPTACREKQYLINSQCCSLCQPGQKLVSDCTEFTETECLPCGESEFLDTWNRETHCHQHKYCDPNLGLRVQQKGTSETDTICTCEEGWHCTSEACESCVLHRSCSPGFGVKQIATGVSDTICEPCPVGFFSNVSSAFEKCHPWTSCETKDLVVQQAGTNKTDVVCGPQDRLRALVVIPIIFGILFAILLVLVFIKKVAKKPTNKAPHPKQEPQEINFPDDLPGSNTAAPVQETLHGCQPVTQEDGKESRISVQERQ
Description: as §1, §2

[4] = molecular target: T1, Human CD40-his; experiment: Octet kinetics of humanized C1H1 antibodies; type: binding; conditions: Table 3, Octet
Description: After six days of culture in a shake flask, the cell supernatant containing the humanized antibodies huC1H1-V1 to huC1H1-V4 was harvested and the binding affinity of the antibodies to human CD40 was determined on an Octet system (Fortebio, Octet RED 96) according to the following procedures. Briefly, an anti-human IgG Fc capture (AHC) biosensor (from ForteBio) was pre-soaked in a 10 mM glycine solution (pH 1.5) for 3 s, and then soaked in a running buffer (PBST containing 0.5% w/v of BSA) for 3 s. The pre-soaking and soaking procedures were repeated 3 times. Then, the sensor was soaked in the cell supernatant containing the humanized anti-CD40 antibody, chimeric antibody C1H1 dissolved in HBS-EP^+ buffer at a concentration of 5 μg/mL, or the benchmark dissolved in HBS-EP^+ buffer at a concentration of 5 μg/mL for 120 s, and then soaked in the running buffer for 5 min. The new baseline was run in the running buffer for 180 s. The sensor was then soaked for 120 s in human CD40-his protein (Acro biosystems, Cat. No. CD0-H5228) 2-fold serially diluted from 40 nM in the running buffer and for 10 min in the running buffer […]. Finally, the sensor was pre-soaked in a 10 mM glycine solution (pH 1.5) for 3 s, and then soaked in the running buffer for 3 s. The pre-soaking and soaking procedures were repeated 3 times. […]

[5] = Table 5, Biacore, purified antibodies
[6] = Table 2, Biacore, association rate

| Compound | Mean tumor volume (mean ± SD) D 0 ([1]; baseline, huC1H1-V2 0.5 mg/kg i.p. once every 2 days × 8, anlotinib dihydrochloride 1 mg/kg intragastric daily × 15) [mm^3] | Mean tumor volume (mean ± SD) D 14 ([1]; huC1H1-V2 0.5 mg/kg i.p. once every 2 days × 8, anlotinib dihydrochloride 1 mg/kg intragastric daily × 15) [mm^3] | TGI D 14 (tumor growth inhibition rate) ([1]; huC1H1-V2 0.5 mg/kg i.p., anlotinib dihydrochloride 1 mg/kg intragastric) [%] | Tolerability (symptoms such as weight loss) ([1]; huC1H1-V2 0.5 mg/kg i.p., anlotinib dihydrochloride 1 mg/kg intragastric, tumor-bearing mice) | T/C D 14 ([1]; vs IgG2 group, huC1H1-V2 0.5 mg/kg i.p., anlotinib dihydrochloride 1 mg/kg intragastric) [%] | Kd ([2]; Table 5, Biacore) [s⁻¹] | Ka [2, 5] [M⁻¹ s⁻¹] | Kd ([3]; Table 5, Biacore) [s⁻¹] | Ka [3, 5] [M⁻¹ s⁻¹] | Kd ([4]; dissociation rate) [s⁻¹] | Ka ([4]; humanized antibodies in cell supernatant, chimeric and benchmark 5 μg/mL) [M⁻¹ s⁻¹] | Ka [2, 6] [M⁻¹ s⁻¹] | Kd ([2]; Table 2, Biacore) [s⁻¹] | Ka [3, 6] [M⁻¹ s⁻¹] | Kd ([3]; Table 2, Biacore) [s⁻¹] |
| --- | --- | --- | --- | --- | --- | --- | --- | --- | --- | --- | --- | --- | --- | --- | --- |
| COc1cc2c(Oc3ccc4[nH]c(C)cc4c3F)ccnc2cc1OCC1(N)CC1 [anlotinib dihydrochloride, 1-[[[4-(4-fluoro-2-methyl-1H-indol-5-yl)oxy-6-methoxyquinolin-7-yl]oxy]methyl]cyclopropylamine, reference compound] | 85.3 ± 3.8 | 1602.8 ± 137.1 | 56 | well tolerated | 44 | – | – | – | – | – | – | – | – | – | – |
| BM2: benchmark antibody selicrelumab, Abgenix Inc., prepared in-house; heavy and light chain SEQ ID NOs: 42 and 43 [reference compound] | – | – | – | – | – | 0.001508 | 173000 | 0.001616 | 206000 | 0.000979 | 874000 | – | – | – | – |
| BM1: benchmark antibody dacetuzumab, Genentech Inc., prepared in-house; heavy and light chain SEQ ID NOs: 40 and 41 [reference compound] | – | – | – | – | – | 0.007397 | 764000 | 0.007562 | 803000 | – | – | 623000 | 0.006164 | 739000 | 0.006556 |
